These results are taken from paper PMC9864219, “Chemodiversity and Anti-Leukemia Effect of Metabolites from Penicillium setosum CMLD 18” (Metabolites, 2022).

In data set [1] the test system is L1210 cells. Further details: method as in PMID 6320499. Conditions: read-out: IC50 inhibiting L1210 cells; cited from earlier work.
In data set [2] the test system is Hela. The arrangement: method as in PMID 28509552. The note with it: Alamar Blue, 72 hrs; cited from earlier work.
Data set [3] deals with K-562. The arrangement: method as in PMID 28509552. Conditions: Alamar Blue, 72 hrs; cited from earlier work.
The test system of data set [4] is Jurkat. The arrangement: method as in PMID 28509552. The note with it: Alamar Blue, 72 hrs; cited from earlier work.
The subject of data set [5] is Kasumi-1. Nature of the data set: Resazurin cell viability assay, Kasumi-1. The class given is cell-based, human. Conditions: for cell viability: Kasumi-1, 100 μM, 48 h, resazurin (Figure 5A). The source says:
(§1) Human leukemic cell lines (Kasumi-1, KG-1, MOLT-4, and Jurkat) were obtained from the American Type Culture Collection (ATCC). KG-1 cells were maintained in Iscove’s modified Dulbecco’s medium (IMDM) supplemented with 20% fetal bovine serum (FBS) (Cultilab, Campinas, Brazil), according to criteria adopted by the cell bank (https://www.atcc.org/products/ccl-246#detailed-product-information) accessed on 10 November 2021, whereas the other lineages were maintained in Roswell Park Memorial Institute medium (RPMI 1640) (Sigma Aldrich, St. Louis, MI, USA) supplemented with 10% FBS. All cells were cultured in a medium containing 100 U/mL penicillin (Sigma Aldrich, St. Louis, MI, USA) and 100 μg/mL streptomycin (Sigma Aldrich, St. Louis, MI, USA) and in a humidified incubator containing 5% CO2 at 37 °C. Passage numbers for all leukemic cell lines were between 3 and 6.
(§2) A resazurin assay (Sigma Aldrich, St. Louis, MI, USA) was used to screen and assess the activity of extracts, fractions, and isolated compounds against leukemic cell lines. Briefly, 10^5 cells/mL were seeded in 96-well plates containing supplemented medium. Cells were treated in the presence or absence of compounds for 48 h using a high concentration (100 µg/mL or 100 µM to isolated compounds) or a concentration–response curve (100, 50, 25, 12.5, 6.25, 3.12, 1.56, and 0.78 µM) after 24 h of treatment with isolated compounds was constructed. After treatment, the cell culture medium was removed, and 100 µL of medium with 10% Resazurin solution was added; after 4 h of incubation, the fluorescence was measured (excitation 530 nm, emission 590 nm) in a FlexStation 3 microplate reader (Molecular Devices, San Jose, CA, USA). Each experiment was performed in triplicate.

The subject of data set [6] is Jurkat. The experiment in a line: Resazurin cell viability assay, Jurkat. The class given is cell-based, human. Conditions: for cell viability: 100 μM, 48 h, resazurin (Figure 5B).
Excerpt: as §1, §2

In data set [7] the target is ACL, an ATP citrate lyase. The arrangement: method as in PMID 27997879. The note with it: read-out: IC50 inhibitory activity against ACL; cited from earlier work.
The test system of data set [8] is CD11b expression in Kasumi-1 cells. The experiment in a line: Cell differentiation by immunophenotyping (CD11b). The note with it: Kasumi-1, 10 μM, 72 h. The data set is classed as cell-based, human. Here is the method: Cells (10^5/mL) were treated with 10 μM Compound 10 for 72 h. Then, the cells were collected and stained with CD11b-Cy7/PE (2 μL) (BD, USA). The measurements of fluorescence intensity were performed using an Accuri C6 flow cytometer (BD Biosciences, Mississauga, Canadá); 40,000 events were collected per sample. Results were expressed as GM fluorescence intensity.

For data set [9], the system named is Kasumi-1. The experiment in a line: Cell cycle analysis (PI) and cell count, Kasumi-1. The data set is classed as cell-based, human. Conditions: Kasumi-1, 10 μM, 72 h. As to the method:
The distribution of cell cycle phases was determined by propidium iodide (PI) staining and flow cytometry analysis. Kasumi-1 and Jurkat cells (10^5/mL) were treated with 10 (10 μM or 1 μM, respectively) for 72 h. Then, the cells were fixed and permeabilized as previously described and treated with 4 μg/mL RNase (Sigma Aldrich, St. Louis, MI, USA) for 45 min at 37 °C. For DNA labeling, cells were incubated with 5 μg/mL of PI (Sigma Aldrich, St. Louis, MI, USA). Percentages of cells within cell cycle compartments (G1/G0, S, and G2/M) were performed using an Accuri C6 flow cytometer (BD Biosciences, Mississauga, Canadá). A total of 40,000 events were acquired.

In data set [10] the test system is cleaved caspase-3 in Jurkat. The experiment in a line: Intracellular labeling of cleaved caspase-3 by flow cytometry, Jurkat. The class given is cell-based, human. The note with it: 50 μM, 24 h. As to the method:
(§3) Kasumi-1 and Jurkat cells (10^5/mL) were treated for 24 h with EC50, 50, or 50 µM 10, respectively. Then, cells were fixed with BD Cytofix (BD Biosciences, Mississauga, ON, Canadá) for 15 min, washed with BD Perm/Wash buffer, and permeabilized with Perm Buffer III (BD, USA) for 30 min at room temperature. In order to label cleaved caspase-3 protein (Cell Signaling, Danvers, MA, USA), cells were incubated for 1 h with primary antibody (1:800). Anti-rabbit IgG secondary antibodies conjugated with Alexa Fluor 488 (Thermo Fisher Scientific, Waltham, MA, USA) (1:1000) were incubated for at least 40 min, and the fluorescence was measured using an Accuri C6 flow cytometer and FlowJo software to analyze the results; 20,000 events were collected per sample. Protein analyses were performed using GM fluorescence intensity.

In data set [11] the test system is normal PBMC cells. The experiment in a line: Resazurin cell viability assay, normal PBMC. The data set is classed as cell-based, human. Conditions: concentration-response curve, 24 h. As to the method: Peripheral blood mononuclear cells (PBMCs) were obtained from three healthy donors. Human monocytes were collected from healthy donors after informed patient consent was obtained. Separation of mononuclear cells was performed by gradient centrifugation methods using Ficoll Histopaque-1077 (1.077 g/cm^3) (Sigma Aldrich, St. Louis, MI, USA) following the manufacturer’s instructions. The use of human samples was approved by the local Ethical Committee of the Universidade Federal de Mato Grosso do Sul (CAAE35853720.2.0000.0021). Cells were maintained in IMDM supplemented with 20% FBS, 100 U/mL penicillin, and 100 μg/mL streptomycin in a humidified atmosphere at 37 °C in 5% CO2.
A resazurin assay (Sigma Aldrich, St. Louis, MI, USA) was used to screen and assess the activity of extracts, fractions, and isolated compounds against leukemic cell lines. Briefly, 10^5 cells/mL were seeded in 96-well plates containing supplemented medium. […] After treatment, the cell culture medium was removed, and 100 µL of medium with 10% Resazurin solution was added; after 4 h of incubation, the fluorescence was measured (excitation 530 nm, emission 590 nm) in a FlexStation 3 microplate reader (Molecular Devices, San Jose, CA, USA). […]

Data set [12] relates to HL-60. The arrangement: method as in doi:10.1016/j.cclet.2017.09.006. Conditions: acute myeloid leukemia cell line; read-out: IC50 against the HL-60 lineage; cited from earlier work.
The test system of data set [13] is Jurkat. Nature of the data set: Annexin V-FITC/7-AAD flow cytometry assay, Jurkat. The note with it: 50 μM, 24 h. The data set is classed as cell-based, human. Here is the method:
(§4) An Annexin V-FITC/7-AAD double staining assay was performed to evaluate the proapoptotic effect of 10. Kasumi-1 and Jurkat cells (10^5/mL) were treated for 24 h with EC50, 50, or 50 µM 10, respectively, or Staurosporine (1 µM) (Sigma Aldrich, St. Louis, MI, USA). Then, the cells were resuspended in annexin binding buffer (0.14 M NaCl, 2.5 mM CaCl2, 0.01 M HEPES, pH 7.4) and incubated at room temperature with 1 μL and 2 μL of annexin V-FITC and 7-AAD (Becton Dickinson, Covington, GA, USA), respectively, for 30 min. Data were analyzed using FlowJo V10 (Becton Dickinson—BD, USA) software; 20,000 events were collected per sample.

The subject of data set [14] is Kasumi-1. Nature of the data set: Annexin V-FITC/7-AAD flow cytometry assay, Kasumi-1. The note with it: Kasumi-1, 50 μM, 24 h. The class given is cell-based, human. As to the method: as §4
For data set [15], the system named is Jurkat. The experiment in a line: Cell cycle analysis (PI) and cell count, Jurkat. The data set is classed as cell-based, human. The note with it: 10 μM, 72 h. Here is the method:
The distribution of cell cycle phases was determined by propidium iodide (PI) staining and flow cytometry analysis. […] Then, the cells were fixed and permeabilized as previously described and treated with 4 μg/mL RNase (Sigma Aldrich, St. Louis, MI, USA) for 45 min at 37 °C. For DNA labeling, cells were incubated with 5 μg/mL of PI (Sigma Aldrich, St. Louis, MI, USA). Percentages of cells within cell cycle compartments (G1/G0, S, and G2/M) were performed using an Accuri C6 flow cytometer (BD Biosciences, Mississauga, Canadá). A total of 40,000 events were acquired.

In data set [16] the test system is cleaved caspase-3 in Kasumi-1. The experiment in a line: Intracellular labeling of cleaved caspase-3 by flow cytometry, Kasumi-1. The data set is classed as cell-based, human. The note with it: Kasumi-1, 50 μM, 24 h. As to the method: as §3

With `Cc1cc(O)c2c(c1)C(=O)c1cc(O)cc(O)c1C2=O` [Compound 3, emodin], the concentration for half-maximal inhibition (IC50) in [1] is 35 µM.
As for `O=C1c2cc(CO)cc(O)c2C(=O)c2c1cc(O)c(Cl)c2O` [Compound 7, 2-chloro-1,3,8-trihydroxy-6-(hydroxymethyl)anthracene-9,10-dione], the “activity against Hela” value in data set [2] is “inactive”. In data set [3], the “activity against K-562” value is “inactive”. In addition, the “activity against Jurkat” value in [4] is “inactive”. The cell viability entry in data set [5] and in data set [6] was “reduction in cell viability” throughout.
In the case of `Cc1cc(O)c2c(c1)C(=O)c1cc(O)c(Cl)c(O)c1C2=O` [Compound 8, 7-chloroemodin], the IC50 in data set [7] was 12.6 µM. Further, the cell viability result in data set [5] and in [6] was “reduction in cell viability” throughout.
With `CSC12CC3=COC=CC(OC(C)=O)C3N1C(=O)C1(SC)CC3=COC=CC(OC(C)=O)C3N1C2=O` (stereo not shown) [Compound 9, bisdethiobis(methylthio)acetylaranotine], the cell viability result in data set [5] and in [6] was “reduction in cell viability” in each case.
On to `C=CC(C)(C)c1[nH]c2ccccc2c1CC1NC(=O)C(Cc2c(C(C)(C)C=C)[nH]c3ccccc23)NC1=O` (stereo not shown) [Compound 10, fellutanine C], for which the “expression of mature myeloid marker CD11b” value in data set [8] is reported as “did not produce an increase in the expression of CD11b”. Also, the “cell proliferation (cell count)” value in data set [9] and in data set [15] was “reduction in cell proliferation” each time. For the same molecule, the “cell viability at the cell cycle concentration” value in data set [9] and in data set [15] was “did not observe a reduction in cell viability” each time. Further, the cell cycle distribution result in [9] (PI staining) and in data set [15] (PI staining) was “cell cycle arrest in G0/G1” each time. For the same molecule, the cleaved-caspase-3 result in data set [10] and in data set [16] was “increased cleaved-caspase-3” throughout. Further, the “cytotoxicity effect on normal PBMC cells” value in data set [11] was “did not show a cytotoxicity effect”. The concentration for half-maximal inhibition (IC50) in [12] was 9.34 µM. In addition, the “cell death mode (Annexin V-FITC and 7-AAD staining)” value in data set [13] is “predominant double staining (late apoptosis and necrosis-like)”; in data set [14], “predominant apoptosis staining (Anx-FITC+/7 AAD-)”. In addition, the 50% effective concentration (EC50) in data set [5] (Homo sapiens, Kasumi-1, concentration-response curve, 24 h, resazurin) came to 50 µM; in data set [6] (Homo sapiens, concentration-response curve, 24 h, resazurin) it was 50 µM. Moreover, the cell viability entry in data set [5] and in data set [6] was “reduction in cell viability” in each case.
